Counter-ions that a name gives are not always drawn.
Molecular target: T1, human HSD17B13 (Homo sapiens, UniProt Q7Z5P4)
T1 sequence (Q7Z5P4 20-300): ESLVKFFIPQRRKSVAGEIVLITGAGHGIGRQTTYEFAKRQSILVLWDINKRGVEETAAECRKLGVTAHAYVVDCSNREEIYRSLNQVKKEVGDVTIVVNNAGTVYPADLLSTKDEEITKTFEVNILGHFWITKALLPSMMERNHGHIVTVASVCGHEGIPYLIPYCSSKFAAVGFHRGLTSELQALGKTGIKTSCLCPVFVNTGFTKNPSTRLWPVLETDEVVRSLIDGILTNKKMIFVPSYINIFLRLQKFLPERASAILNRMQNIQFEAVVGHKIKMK
Experiment: Substrate screening of steroid and bioactive lipid libraries against purified recombinant HSD17B13 (NADH-linked luciferase assay)
Type: biochemical
Conditions: for HSD17B13 Enzymatic Activity Relative Light Units: 500 μM NAD+, 100 ng enzyme, 3 hours at 23° C.; for HSD17B13 Enzymatic Activity Percent Estradiol Control: normalized to 50 μM estradiol after subtraction of 5% DMSO
Method in brief: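 Substrates (bioactive lipids 5 μM, steroids 50 μM; 5% DMSO) tested with 500 μM NAD+ and 100 ng recombinant human HSD17B13 in 0.2 M Tris-HCl pH 7.5, 3 h, 23° C. Luminescent NADH detection followed 1 h later; RLU normalized to estradiol (50 μM, 100%) and DMSO (0%) controls.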

[1] = Bioactive Lipid Library, 5 μM bioactive lipid (Estradiol Control 50 μM)
[2] = Bioactive Lipid Library, 5 μM bioactive lipid

| Molecule | HSD17B13 Enzymatic Activity Relative Light Units [1] | HSD17B13 Enzymatic Activity Percent Estradiol Control [2] | HSD17B13 Enzymatic Activity Relative Light Units (Steroid Library, 50 μM steroid) | HSD17B13 Enzymatic Activity Percent Estradiol Control (Steroid Library, 50 μM steroid) |
| --- | --- | --- | --- | --- |
| CCCCC/C=C\C[C@@H](O)/C=C/c1cccc(C[C@@H](O)CCCCO)n1 [U-75302] | 425520 RLU | 7.59% |  |  |
| CCCCCC(O)C(O)C/C=C\C/C=C\C/C=C\CCCC(=O)O (racemic) [(±)14(15)-DiHET] | 403560 RLU | 5.93% |  |  |
| CCCCC(C)(C)[C@H](O)/C=C/[C@H]1[C@H](O)CC(=O)[C@@H]1C/C=C\CCCC(=O)Oc1ccc(NC(=O)c2ccc(NC(C)=O)cc2)cc1 [16,16-dimethyl Prostaglandin E2 p-(p-acetamidobenzamido) phenyl ester] | 322280 RLU | 3.10% |  |  |
| C[C@]12C/C(=C/O)C(=O)C[C@@H]1CC[C@@H]1[C@@H]2CC[C@@]2(C)[C@H]1CC[C@]2(C)O [Oxymetholone] |  |  | 92000 RLU | −1.20% |
| C[C@]12C[C@H](O)[C@H]3[C@@H](CCC4=CC(=O)CC[C@@]43C)[C@@H]1CC[C@@H]2C(=O)CO [Corticosterone] |  |  | 215320 RLU | 0.96% |
| Ptdlns-(4)-P1 (1,2-dipalmitoyl) (ammonium salt) | 123240 RLU | −15.24% |  |  |
| O=P(O)(O)O[C@@H]1C(O)[C@@H](OP(=O)(O)O)[C@@H](O)C(O)[C@H]1O (stereo partly drawn) [D-myo-Inositol-2,4-diphosphate (sodium salt)] | 306720 RLU | −1.38% |  |  |
| O=P(O)(O)OC1[C@@H](O)[C@@H](O)C(O)[C@H](O)[C@H]1O (stereo partly drawn) [D-myo-Inositol-4-phosphate (ammonium salt)] | 408880 RLU | 6.33% |  |  |
| Ptdlns-(3,4)-P2 (1,2-dipalmitoyl) (sodium salt) | 351680 RLU | 2.01% |  |  |
| CC/C=C\C/C=C\C/C=C\C/C=C\CC1OC1CCCC(=O)OC (stereo not drawn) [5(6)-EpETE methyl ester] | 337400 RLU | 0.93% |  |  |
| CC/C=C\C/C=C\C/C=C\C/C=C\C/C=C\CC1OC1CCC(=O)OC (racemic) [(±)4(5)-EpDPA methyl ester] | 338320 RLU | 1.00% |  |  |
| CCCCC/C=C\CC(/C=C/C=C\C/C=C\CCCC(=O)O)OO (racemic) [(±)12-HpETE] | 165800 RLU | −9.27% |  |  |
| CC(C)=CCC[C@]1(C)[C@@H](CC=C(C)C)C[C@@]2(CC=C(C)C)C(=O)[C@]1(C(=O)C(C)C)C(=O)C(CC=C(C)C)=C2O [Hyperforin] | 23920 RLU | −22.74% |  |  |
| CC/C=C\C[C@H](O)/C=C/[C@@H]1[C@@H](C/C=C\CCCC(=O)O)[C@@H](O)C[C@H]1O [Prostaglandin F3α] | 385360 RLU | 8.08% |  |  |
| C[C@]12CCC(=O)C[C@@H]1CC[C@@H]1[C@@H]2CC[C@]2(C)[C@@H](OC(=O)c3ccccc3)CC[C@@H]12 [Androstanolone 17-benzoate] |  |  | 217200 RLU | 0.99% |
| CC(C)OC(=O)CCC/C=C\C[C@@H]1[C@@H](/C=C/[C@H](O)COc2cccc(C(F)(F)F)c2)[C@H](O)C[C@@H]1O [15(S)-Fluprostenol isopropyl ester] | 410960 RLU | 10.11% |  |  |
| CC/C=C\C/C=C\C/C=C\C/C=C\C=C\[C@@H](O)CCCC(=O)O [5(S)-HEPE] | 429120 RLU | 10.58% |  |  |
| CCCCC/C=C\C/C=C\C/C=C\CC#CCCCC(=O)O [5,6-dehydro Arachidonic Acid] | 210160 RLU | −8.68% |  |  |
